What was measured:
[1] = tested on: 8 cancer cell lines; assay: Classification of drugs by Apotracker Red (apoptosis) and CellTrace Violet (proliferation) staining; assay type: cell-based; details: 8 cancer cell lines, 24 h treatment, flow cytometry
Procedure: To corroborate the versatility of Apotracker Red, we built a screening platform including a total of 8 cancer cell lines of variable origin and pathogenesis: breast (MCF7, MDA‐MB231 and MMTV‐PyMT (mouse mammary tumour virus‐polyoma middle tumour‐antigen)[23]), lung (A549), prostate (PC3 and LnCap), blood cells (Jurkat) and colon (HT29). All cell lines were cultured under standard conditions and seeded with the fluorescent proliferation marker CellTrace^TM Violet (CV) in 96‐well plates (10–20×10^3 cells/well) for high‐throughput flow cytometry. After drug treatment (i.e., drug addition plus 24 h incubation), Apotracker Red was incubated for 10 min and fluorescence readings were directly acquired without any additional processing steps (Figure 3 a). […] Using this platform, we tested a collection of FDA‐approved drugs in all cancer cell lines and compared their ability to induce apoptosis using Apotracker Red as the reporter. Specifically, we included DNA alkylation agents (e.g., cyclophosphamide, cisplatin, 5‐fluorouracil, gemcitabine, temozolomide), proteasomal and mitotic inhibitors (e.g., bortezomib, docetaxel, paclitaxel) and antagonists of specific proteins (e.g., dexamethasone, tamoxifen; Figure 3 b).
(§1) First, all drugs were tested in the 8 different cell lines to determine the percentages of Apotracker Red‐stained apoptotic cells compared to no treatment (Figure 3 c; Figure S8). […] All 5 drugs were tested at multiple concentrations (from 1 to 100 μM) and with incubation times up to 48 h to examine whether drugs could block cell proliferation at late stages (Figures S9–S13).
Figure S8. Heatmap of relative inhibition of cell proliferation (as indicated by staining of CellTraceTM Violet) after treatment of cancer cell lines with different drugs. Data presented as an average of 3 independent experiments. Cells were stained on day 0 with CellTraceTM Violet (1 µM) and mean fluorescence intensities were determined on the 5L LSR after 24 h of treatment with the different drugs. […]
Cell culture. MCF-7, A549, LnCap, MDA-MB-231, Jurkat T cells and PC3 cells were obtained from American Type Culture Collection (ATCC). HT29 cells were purchased from Merck (S i g m a Aldrich, UK). Mouse Mammary Tumour Virus –Polyoma Middle T antigen (MMTV -PyMT) cells were provided by the lab of Mikala Egeblad (CSHL, US). MMTV-PyMT, MCF-7, LnCap, MDA-MB-231 and Jurkat T cells were cultured in Roswell Park Memorial Institute (RPMI) 1640 Medium supplemented with 10% fetal bovine serum (FBS) , 100 U mL-1 penicillin and 0.1 mg mL-1 streptomycin. A549 and PC3 cells were cultured in Dublecco’s modified Eagle’s medium (DMEM) supplemented with 10% fetal bovine serum (FBS), 100 U mL-1 penicillin and 0.1 mg […]
Flow cytometry drug screen.

[2] = tested on: breast cancer cells (MMTV-PyMT, MDA-MB231, MCF7); assay: Dose-dependency study in breast cancer cell lines; assay type: cell-based, mouse and human
Procedure: as §1, with “S8). […] From this screen, we decided to select 5 drugs with potent pro‐apoptotic response in breast cancer, the most diagnosed cancer worldwide.[25] […] From group 2, we selected cyclophosphamide, tamoxifen, and 5‐fluorouracil as pro‐apoptotic molecules.” for “S8).”
Figure 4 Apotracker Red detects dose‐dependent chemotherapeutic‐induced apoptosis in mouse and human breast cancer cell lines. Cells were plated with 1 μM CV, treated with increasing concentrations (0, 1, 3, 10, 30 and 100 μM) of selected drugs for 48 h, and stained with Apotracker Red (150 nM) before data acquisition. Drugs: tamoxifen (beige), cisplatin (black), 5‐fluorouracil (green), gemcitabine (pink) and cyclophosphamide (red). Data presented as mean±SEM of 3 independent experiments.
Edinburgh. Human peripheral blood neutrophils were isolated as previously described.[3] Briefly, whole blood was drawn into tubes containing anti -coagulant 3.6% sodium citrate (final concentration: 0.4% (w/v)) and centrifuged at 350 g for 20 min at r.t. with lowest acceleration and no brake. Platelet-rich plasma was rem oved, and leukocytes separated from erythrocytes by 0.6% dextran sedimentation in saline for 30 min at r.t. […]
were centrifuged (300 g, 5 min, r.t.), washed once with PBS before addition of 0.05% Trypsin, 0.02% ethylenediaminetetraacetic acid (EDTA) in Hank’s balanced salt solution (HBSS) and incubation at 37°C for 5 min. […] Histograms and mean fluorescence intensities of apoptotic cells were measured on a 5L LSR flow cytometer under the following excitation/emission filters: Apotracker Red (561/610 nm), Annexin V-AF647 (647 /670 nm).
Data were acquired using the FACS Diva software and analysed using the FlowJo X software. […]

## N.N.[Cl][Pt][Cl] [cisplatin]
[1]
  drug group by Apotracker Red (apoptosis) and CV (proliferation) staining: induced apoptosis and decreased cell proliferation
[2]; 1 to 100 μM, 48 h, Apotracker Red 150 nM, 3 independent experiments
  percentages of Apotracker Red staining across all breast cancer cells, dose-dependency study: highest percentages of Apotracker Red staining
[2]; CellTrace Violet 1 μM, drugs 1 to 100 μM, up to 48 h
  ratios of proliferation blockage, dose-dependency study: highest ratios of proliferation blockage

— publication PMC10947113, “A Bivalent Activatable Fluorescent Probe for Screening and Intravital Imaging of Chemotherapy‐Induced Cancer Cell Death” (Angewandte Chemie (Weinheim an Der Bergstrasse, Germany), 2021)
